US7871794B2, “Enhanced cell-free synthesis of active proteins containing disulfide bonds” (The Board of Trustees of the Leland Stanford Junior …, priority 2007, dated 2011)

Tests used:
[1] = system: reduction of GSSG; test: Assay for the reduction of oxidized glutathione in PANOx-SP cell-free reactions; type: biochemical, E. coli
Method: For determining the effect of pH and IAM concentration on GSSG stabilization, the pH of S30 extracts was adjusted by first adding a small volume of 10 M KOH or HCl to the bottom of an Eppendorf tube. A much larger volume of S30 extract was then rapidly mixed with the small volume of acid or base. The pH was measured with a standardized micro-pH probe (Model 9810BN, Orion, Beverly, Mass.). Several 15 μL PANOx-SP reactions supplemented with 5 mM GSSG and the pK7CAT plasmid were prepared at each pH and IAM concentration. Single reactions were terminated at 15, 38, 60, 90, 120, and 180 minutes for each condition, and the concentration of SH groups was measured as described below.
Assay for the Reduction of Oxidized Glutathione. The reduction of oxidized glutathione was measured by monitoring the increase in concentration of sulfhydryl groups over time. The entire 15 μL in vitro synthesis reaction was diluted with an equal volume of 10% trichloroacetic acid and centrifuged for 10 minutes at 12,000×g and 4° C. Ten microliters of the supernatant was added to wells of a 96-well microtiter plate. To each well, 90 μL of 1 M Tris-HCl (pH 7.8) with 0.44 mg/mL DTNB (5,5′-dithiobis-2-nitrobenzoic acid, TCI America) was added. After 3 minutes at room temperature, the absorbance at 412 nm was measured and the concentration of free thiols determined by comparison to a standard curve determined with GSH solutions of known concentration.

[2] = target: T1, thioredoxin reductase (TrxB) (Escherichia coli, UniProt P0A9P4); test: Assay for thioredoxin reductase activity after IAM treatment at various pHs; type: biochemical, E. coli; settings: 7 mM IAM, 30 minutes at room temperature
T1 construct: made in house; host or cells: cell-free (in vitro) synthesis reaction, E. coli extract
T1 sequence (P0A9P4 whole entry): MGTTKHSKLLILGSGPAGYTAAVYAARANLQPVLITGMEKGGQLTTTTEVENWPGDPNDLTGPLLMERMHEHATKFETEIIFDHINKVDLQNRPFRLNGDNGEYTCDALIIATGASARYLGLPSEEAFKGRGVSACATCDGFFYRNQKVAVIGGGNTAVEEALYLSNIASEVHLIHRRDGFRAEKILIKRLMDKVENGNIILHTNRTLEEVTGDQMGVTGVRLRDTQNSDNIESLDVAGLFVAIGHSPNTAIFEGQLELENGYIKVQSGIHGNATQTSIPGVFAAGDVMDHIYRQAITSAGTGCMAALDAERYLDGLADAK
Method: Assay for Thioredoxin Reductase Activity. Thioredoxin reductase was produced in in vitro synthesis reactions as described previously (Knapp and Swartz (2004) FEBS Lett 559:66-70). The pHs of aliquots of the unpurified reaction product were adjusted to the desired values with small volumes of concentrated KOH or HCl. These aliquots were then mixed with a small volume of IAM concentrate to obtain a final IAM concentration of 7 mM. These samples were incubated at room temperature for 30 minutes, and then the thioredoxin reductase activity of the samples was measured. The activity assay for thioredoxin reductase contained the following components: 50 mM NaH2PO4 pH 7.6, 1.5 mM EDTA, 10 mM glucose 6-phosphate, 200 μM DTNB, 300 μM NADPH, 3 μM E. coli thioredoxin (EMD Biosciences; Darmstadt, Germany), and 0.2 U glucose 6-phosphate dehydrogenase (Sigma). Approximately 500 ng of thioredoxin reductase was added to 1 mL of the assay mixture and the rate of increase in absorbance at 412 nm was measured for 90 seconds at 37° C. DTNB produces two molecules of nitrothiobenzoate when it is reduced. The extinction coefficient of nitrothiobenzoate (13,600 M^−1 cm^−1) was used to calculate the rate of reaction.

NC(=O)CI [IAM, iodoacetamide]
effect on sulfhydryl groups at IAM concentrations greater than 50 μM ([1]; KGK10 extract): slow rate of oxidation of sulfhydryls | IAM concentration sufficient to eliminate the reduction of GSSG ([1]; KGK10 extract, IAM treatment near physiological pH): 50 µM | IAM needed to stabilize the oxidized glutathione buffer, KGK10 extract versus KC6 extract ([1]; in vitro synthesis reactions containing 5 mM GSSG): Twenty-fold less | pH at which IAM inactivation of TrxB begins to lose its effectiveness [2]: ~5.8
